According to patent US4690938A, “Anti-hypertensive agents” (University of Miami, priority 1979, dated 1987):

Columns and labels:
[1] = target: T1, angiotensin converting enzyme (human urinary ACE) (Homo sapiens, UniProt P12821); experiment: ACE activity assay: hydrolysis of Benzoyl-GlyHisLeu by ACE purified from human urine; assay type: biochemical; details: Benzoyl-GlyHisLeu 1×10^-4 M, pH 8.0, 37° C, read-out: I50
T1 construct: ACE purified from human urine; from tissue; host or cells: human urine
T1 sequence (P12821 30-1232 limits assumed): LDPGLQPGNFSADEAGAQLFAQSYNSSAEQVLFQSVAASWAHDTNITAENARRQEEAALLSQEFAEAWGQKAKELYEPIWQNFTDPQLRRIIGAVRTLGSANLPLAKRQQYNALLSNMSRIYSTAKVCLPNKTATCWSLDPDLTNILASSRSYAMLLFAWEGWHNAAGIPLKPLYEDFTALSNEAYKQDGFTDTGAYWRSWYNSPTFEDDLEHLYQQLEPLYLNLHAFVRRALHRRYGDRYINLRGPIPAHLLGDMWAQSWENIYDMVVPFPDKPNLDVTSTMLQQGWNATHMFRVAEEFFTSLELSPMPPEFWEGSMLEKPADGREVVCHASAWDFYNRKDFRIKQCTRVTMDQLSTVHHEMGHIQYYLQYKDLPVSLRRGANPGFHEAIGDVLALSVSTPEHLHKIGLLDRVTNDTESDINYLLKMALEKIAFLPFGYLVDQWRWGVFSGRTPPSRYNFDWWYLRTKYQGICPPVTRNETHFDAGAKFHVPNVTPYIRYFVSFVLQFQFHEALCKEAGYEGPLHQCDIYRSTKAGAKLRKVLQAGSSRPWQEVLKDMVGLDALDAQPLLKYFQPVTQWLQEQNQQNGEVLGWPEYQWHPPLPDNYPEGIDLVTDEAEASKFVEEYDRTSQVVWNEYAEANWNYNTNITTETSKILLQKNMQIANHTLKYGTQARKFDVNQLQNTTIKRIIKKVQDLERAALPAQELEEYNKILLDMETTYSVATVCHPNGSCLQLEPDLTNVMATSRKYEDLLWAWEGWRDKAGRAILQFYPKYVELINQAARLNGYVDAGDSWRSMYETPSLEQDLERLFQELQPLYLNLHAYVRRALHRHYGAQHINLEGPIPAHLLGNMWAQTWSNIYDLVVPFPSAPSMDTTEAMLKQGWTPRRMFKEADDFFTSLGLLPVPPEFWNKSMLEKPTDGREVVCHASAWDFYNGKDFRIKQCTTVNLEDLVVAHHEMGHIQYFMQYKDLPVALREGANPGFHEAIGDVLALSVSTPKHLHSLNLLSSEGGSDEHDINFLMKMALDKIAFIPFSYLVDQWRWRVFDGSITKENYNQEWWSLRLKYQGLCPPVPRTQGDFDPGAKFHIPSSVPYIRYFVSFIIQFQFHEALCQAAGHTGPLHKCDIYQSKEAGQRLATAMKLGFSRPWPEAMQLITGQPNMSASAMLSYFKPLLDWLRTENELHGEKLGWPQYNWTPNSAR
Description: The role of ACE in the pathogenesis of hypertension has prompted a search for inhibitors of the enzyme that could act as antihypertensive drugs. See for example U.S. Pat. Nos. 3,891,616, 3,947,575, 4,052,511 and 4,053,651. […]. No. 4,046,889 to Ondetti et al., issued Sept. 6, 1977, and in scientific articles by Cushman, D. W. et al., Biochemistry 16, 5484 (1977), and by Ondetti, M. et al., Science 196, 441 (1977). […]. These factors include the source of enzyme, its purity, the substrate used and its concentration, and the composition of the assay buffer. All I50 data reported herein have been performed with the same assay system and same enzyme (human urinary ACE) and with an approximately 1/2 Km level of substrate and are therefore internally consistent. Discrepancies with data obtained by other workers may be observed. Indeed such discrepancies do exist in the literature, for unknown reasons. See, for example, the I50 values for BPP9a reported by Cushman, D. W., et al., Experientia 29, 1032 (1973) and by Dorer, F. E., et al., Biochim.Biophys.Acta 429, 220 (1976).
For most experiments described herein, the enzyme was assayed in 0.05M Hepes buffer, pH 8.0 containing 0.1M NaCl and 0.75M Na2 SO4. […]
The inhibitory potency of N^α-[ 3-(N^α -benzoylglycylthio)-2-D-L-proline in vitro was measured in the assay described in Example 1. […]

[2] = test system: mean arterial blood pressure response to angiotensin I; experiment: Intravenous effectiveness: blood pressure response to angiotensin I in anesthetized rats; assay type: in vivo, rat; details: i.v.; angiotensin I 400 ng/kg
Protocol: Rats (210-290 g body weight) were fasted overnight and then anesthetized with intraperitoneal pentobarbital, 50-60 mg/kg. Tracheostomy was performed and the animals were ventilated mechanically. A cannula was inserted into a femoral vein for injection of angiotensin I, and a second cannula was inserted into a common carotid artery for direct measurement of arterial blood pressure. Heparin, 1,000 units, was injected via the femoral vein to prevent coagulation. Blood pressure was measured with a pressure transducer connected to a polygraph. The rats were injected with […] of angiotensin I in 20 μl of 0.9 g % NaCl; an amount of angiotensin I sufficient to raise mean arterial blood pressure by 38 mm Hg. After the responsiveness of a given rat to angiotensin I was established, the named compound at 20 μmol/kg (drug dissolved in 0.15 ml of H2 O plus 10 μl of 1N NaHCO3), was given via a stomach tube. At timed intervals, the effects of 400 ng/kg of angiotensin I on mean arterial blood pressure were tested. Results are shown below:
Intravenous Effectiveness of N^α -[3-(N^α -benzoylglycylthio)-2-D-methylpropanoyl)-L-proline. Anesthetized rats were prepared as described in Example 20. The animals were administered the named compound via a femoral vein in 15 μl of 0.01 N sodium bicarbonate, after the control response to 400 ng/kg of angiotensin I was measured. […]

[3] = test system: mean arterial blood pressure response to angiotensin I; experiment: Oral effectiveness: blood pressure response to angiotensin I in anesthetized rats; assay type: in vivo, rat; details: angiotensin I 400 ng/ml in 20 μl of 0.9 g % NaCl (table: 400 ng/kg); control response before drug
Protocol: Rats (210-290 g body weight) were fasted overnight and then anesthetized with intraperitoneal pentobarbital, 50-60 mg/kg. Tracheostomy was performed and the animals were ventilated mechanically. A cannula was inserted into a femoral vein for injection of angiotensin I, and a second cannula was inserted into a common carotid artery for direct measurement of arterial blood pressure. Heparin, 1,000 units, was injected via the femoral vein to prevent coagulation. Blood pressure was measured with a pressure transducer connected to a polygraph. The rats were injected with 400 ng/ml of angiotensin I in 20 μl of 0.9 g % NaCl; an amount of angiotensin I sufficient to raise mean arterial blood pressure by 38 mm Hg. After the responsiveness of a given rat to angiotensin I was established, the named compound at 20 μmol/kg (drug dissolved in 0.15 ml of H2 O plus 10 μl of 1N NaHCO3), was given via a stomach tube. At timed intervals, the effects of 400 ng/kg of angiotensin I on mean arterial blood pressure were tested.

C[C@H](CSC(=O)CNC(=O)c1ccccc1)C(=O)N1CCC[C@H]1C(=O)O [Example 13, N^α -[3-(N^Δ -benzoylglycylthio)-2-D-methylpropanoyl]-L-proline]
IC50 [1]: 7.5 nM | Blood pressure response to angiotensin I after intravenous administration (in words) [2]: rapid decrease of blood pressure response to angiotensin I, 400 ng/kg followed by a gradual rise to the pretreatment level of responsiveness

angiotensin I: decapeptide angiotensin I, having the sequence AspArgValTyrlleHisProPheHisLeu (DRVYIHPFHL; Angiotensin-1; UniProt P01019 25-34, looked up)
Increase of mean arterial blood pressure by angiotensin I [3]: 38 mm Hg
